Values joined by “and” are separate entries in the source; they are usually repeats but may differ in a detail not shown here. Equal entries are not always repeated.

The target in the assay is T1, cardiac RyR2 (Sus scrofa, UniProt A0A5G2R1W3).
T1 construct: from tissue; host or cells: pig heart ventricle (sarcoplasmic reticulum microsomes)
The assay can be described thus: Single-channel recordings of RyR2 reconstituted into planar lipid bilayers. The assay is classed as biochemical, pig. Particulars: for dwell time of ryanodol-induced events: Vm = +20 mV, n = 7, mean±SEM; for dwell time of ryanodol-induced events / slope conductance of the induced substate (I-V curve): SEM; for substate current level as % of the current through the full open channel / substate current level as % of the full open current: 1 µg/ml protamine, 10 µM ryanodol or 50 nM IpTxA, 10 µM cytosolic Ca2+/5 mM caffeine; for substate current level as % of the full open current: Vm = +40 mV; for slope conductance of the induced substate (I-V curve): fully active RyR2 (10 µM Ca2+/5 mM caffeine), full open state 129±1 pS, n = 10 protamine, 13 ryanodol, 5 IpTxA, mean±SEM. The source says: All procedures with animals were designed to minimize pain and suffering and conformed to the guidelines of the National Institutes of Health. The committee on the Use and Care of Laboratory Animals of Southern Illinois University School of Medicine reviewed and approved the protocols for animal use. Sarcoplasmic reticulum (SR) microsomes were obtained from pig heart ventricle using heart homogenization and ultracentrifugation steps that follow the procedures published by Chamberlain et al.. SR pellets obtained after high speed centrifugation were resuspended in 290 mM sucrose - 5 mM Imidazole buffer (pH = 7) and were aliquoted in cryovials (300 µl each) and kept in liquid nitrogen (better and safer long-term storage). Every month, a few cryovials are used to generate smaller aliquots of membranes (15 µl each) which were stored at –80°C for easy access. For experiments, aliquots were quickly thawed in water, kept on ice and used within 3–5 hours.
Reconstitution of RyR2 in planar lipid bilayers, was performed as previously described. Briefly, planar lipid bilayers were formed on 80 to 100 µm-diameter circular holes in teflon septa, separating two 1.3 ml compartments. The trans compartment was filled with HEPES-Ca^2+ solution containing HEPES 250 mM and Ca(OH)2 53 mM, pH 7.4. The trans compartment was clamped at 0 mV using an Axopatch 200B patch-clamp amplifier (Axon Instruments, Foster City, CA). The cis compartment (ground) was filled with HEPES-Tris solution containing HEPES 250 mM and TrisOH 118 mM, pH 7.4. Bilayers of a 5∶4∶1 mixture of bovine brain phosphatidylethanolamine, phosphatidylserine and phosphatidylcholine (45–50 mg/ml in decane) were painted onto the holes of teflon septa from the cis side. Sarcoplasmic reticulum microsomes (5–15 µg) were then added to the cis solution followed by 500–1000 mM CsCl and 1 mM CaCl2 to promote vesicle fusion. After RyR currents (or Cl^− currents >100 pA at 0 mV) were observed, the cis chamber was perfused with HEPES-TRIS solution for 5 min at 4 ml/min. A mixture of BAPTA and dibromo-BAPTA was used to buffer free [Ca^2+] on the cytosolic surface of the channel ([Ca^2+]cyt). As previously done, RyR channels were identified by current amplitudes (∼3.5 pA at 0 mV), slope conductance (∼100 pS), reversal potential (∼−45 mV, trans - cis) and response to diagnostic ligands (e.g., ryanodine, Ca^2+, ATP, caffeine and Ruthenium Red). RyR channel currents are depicted as positive (upward deflections of the current) in figures and reflect cation flux from the trans (lumenal) to the cis (cytosolic) compartment. Membrane voltages always represent the difference between trans - cis compartments (in mV).
Channel currents were first filtered through the Axopatch 200B low-pass Bessel filter at 2 kHz, digitized at 20 kHz with an analog to digital converter (Digidata 1320, Axon Instruments) and stored on DVD. Recordings were analyzed using pClamp9 software (Axon Instruments). Analysis with this program included open times, closed times and open probabilities (Po), which were determined by half-amplitude threshold analysis of single-channel recordings as done before.
Recordings were digitally filtered at 500 Hz in order to estimate the probabilities of substates using two different methods:
Frame by frame analysis (100 ms/frame) was performed using pClamp9 on each 4-min recording. […] The parameters (mean amplitude and duration) of each event were collected and averaged. The probability of substate occurrence, Psubstate, was estimated from the ratio: time spent in substate/total recording time. Pfull open was estimated as the fraction of time spent in the maximal current level (full opening).

T1 sequence (A0A5G2R1W3 20-4900): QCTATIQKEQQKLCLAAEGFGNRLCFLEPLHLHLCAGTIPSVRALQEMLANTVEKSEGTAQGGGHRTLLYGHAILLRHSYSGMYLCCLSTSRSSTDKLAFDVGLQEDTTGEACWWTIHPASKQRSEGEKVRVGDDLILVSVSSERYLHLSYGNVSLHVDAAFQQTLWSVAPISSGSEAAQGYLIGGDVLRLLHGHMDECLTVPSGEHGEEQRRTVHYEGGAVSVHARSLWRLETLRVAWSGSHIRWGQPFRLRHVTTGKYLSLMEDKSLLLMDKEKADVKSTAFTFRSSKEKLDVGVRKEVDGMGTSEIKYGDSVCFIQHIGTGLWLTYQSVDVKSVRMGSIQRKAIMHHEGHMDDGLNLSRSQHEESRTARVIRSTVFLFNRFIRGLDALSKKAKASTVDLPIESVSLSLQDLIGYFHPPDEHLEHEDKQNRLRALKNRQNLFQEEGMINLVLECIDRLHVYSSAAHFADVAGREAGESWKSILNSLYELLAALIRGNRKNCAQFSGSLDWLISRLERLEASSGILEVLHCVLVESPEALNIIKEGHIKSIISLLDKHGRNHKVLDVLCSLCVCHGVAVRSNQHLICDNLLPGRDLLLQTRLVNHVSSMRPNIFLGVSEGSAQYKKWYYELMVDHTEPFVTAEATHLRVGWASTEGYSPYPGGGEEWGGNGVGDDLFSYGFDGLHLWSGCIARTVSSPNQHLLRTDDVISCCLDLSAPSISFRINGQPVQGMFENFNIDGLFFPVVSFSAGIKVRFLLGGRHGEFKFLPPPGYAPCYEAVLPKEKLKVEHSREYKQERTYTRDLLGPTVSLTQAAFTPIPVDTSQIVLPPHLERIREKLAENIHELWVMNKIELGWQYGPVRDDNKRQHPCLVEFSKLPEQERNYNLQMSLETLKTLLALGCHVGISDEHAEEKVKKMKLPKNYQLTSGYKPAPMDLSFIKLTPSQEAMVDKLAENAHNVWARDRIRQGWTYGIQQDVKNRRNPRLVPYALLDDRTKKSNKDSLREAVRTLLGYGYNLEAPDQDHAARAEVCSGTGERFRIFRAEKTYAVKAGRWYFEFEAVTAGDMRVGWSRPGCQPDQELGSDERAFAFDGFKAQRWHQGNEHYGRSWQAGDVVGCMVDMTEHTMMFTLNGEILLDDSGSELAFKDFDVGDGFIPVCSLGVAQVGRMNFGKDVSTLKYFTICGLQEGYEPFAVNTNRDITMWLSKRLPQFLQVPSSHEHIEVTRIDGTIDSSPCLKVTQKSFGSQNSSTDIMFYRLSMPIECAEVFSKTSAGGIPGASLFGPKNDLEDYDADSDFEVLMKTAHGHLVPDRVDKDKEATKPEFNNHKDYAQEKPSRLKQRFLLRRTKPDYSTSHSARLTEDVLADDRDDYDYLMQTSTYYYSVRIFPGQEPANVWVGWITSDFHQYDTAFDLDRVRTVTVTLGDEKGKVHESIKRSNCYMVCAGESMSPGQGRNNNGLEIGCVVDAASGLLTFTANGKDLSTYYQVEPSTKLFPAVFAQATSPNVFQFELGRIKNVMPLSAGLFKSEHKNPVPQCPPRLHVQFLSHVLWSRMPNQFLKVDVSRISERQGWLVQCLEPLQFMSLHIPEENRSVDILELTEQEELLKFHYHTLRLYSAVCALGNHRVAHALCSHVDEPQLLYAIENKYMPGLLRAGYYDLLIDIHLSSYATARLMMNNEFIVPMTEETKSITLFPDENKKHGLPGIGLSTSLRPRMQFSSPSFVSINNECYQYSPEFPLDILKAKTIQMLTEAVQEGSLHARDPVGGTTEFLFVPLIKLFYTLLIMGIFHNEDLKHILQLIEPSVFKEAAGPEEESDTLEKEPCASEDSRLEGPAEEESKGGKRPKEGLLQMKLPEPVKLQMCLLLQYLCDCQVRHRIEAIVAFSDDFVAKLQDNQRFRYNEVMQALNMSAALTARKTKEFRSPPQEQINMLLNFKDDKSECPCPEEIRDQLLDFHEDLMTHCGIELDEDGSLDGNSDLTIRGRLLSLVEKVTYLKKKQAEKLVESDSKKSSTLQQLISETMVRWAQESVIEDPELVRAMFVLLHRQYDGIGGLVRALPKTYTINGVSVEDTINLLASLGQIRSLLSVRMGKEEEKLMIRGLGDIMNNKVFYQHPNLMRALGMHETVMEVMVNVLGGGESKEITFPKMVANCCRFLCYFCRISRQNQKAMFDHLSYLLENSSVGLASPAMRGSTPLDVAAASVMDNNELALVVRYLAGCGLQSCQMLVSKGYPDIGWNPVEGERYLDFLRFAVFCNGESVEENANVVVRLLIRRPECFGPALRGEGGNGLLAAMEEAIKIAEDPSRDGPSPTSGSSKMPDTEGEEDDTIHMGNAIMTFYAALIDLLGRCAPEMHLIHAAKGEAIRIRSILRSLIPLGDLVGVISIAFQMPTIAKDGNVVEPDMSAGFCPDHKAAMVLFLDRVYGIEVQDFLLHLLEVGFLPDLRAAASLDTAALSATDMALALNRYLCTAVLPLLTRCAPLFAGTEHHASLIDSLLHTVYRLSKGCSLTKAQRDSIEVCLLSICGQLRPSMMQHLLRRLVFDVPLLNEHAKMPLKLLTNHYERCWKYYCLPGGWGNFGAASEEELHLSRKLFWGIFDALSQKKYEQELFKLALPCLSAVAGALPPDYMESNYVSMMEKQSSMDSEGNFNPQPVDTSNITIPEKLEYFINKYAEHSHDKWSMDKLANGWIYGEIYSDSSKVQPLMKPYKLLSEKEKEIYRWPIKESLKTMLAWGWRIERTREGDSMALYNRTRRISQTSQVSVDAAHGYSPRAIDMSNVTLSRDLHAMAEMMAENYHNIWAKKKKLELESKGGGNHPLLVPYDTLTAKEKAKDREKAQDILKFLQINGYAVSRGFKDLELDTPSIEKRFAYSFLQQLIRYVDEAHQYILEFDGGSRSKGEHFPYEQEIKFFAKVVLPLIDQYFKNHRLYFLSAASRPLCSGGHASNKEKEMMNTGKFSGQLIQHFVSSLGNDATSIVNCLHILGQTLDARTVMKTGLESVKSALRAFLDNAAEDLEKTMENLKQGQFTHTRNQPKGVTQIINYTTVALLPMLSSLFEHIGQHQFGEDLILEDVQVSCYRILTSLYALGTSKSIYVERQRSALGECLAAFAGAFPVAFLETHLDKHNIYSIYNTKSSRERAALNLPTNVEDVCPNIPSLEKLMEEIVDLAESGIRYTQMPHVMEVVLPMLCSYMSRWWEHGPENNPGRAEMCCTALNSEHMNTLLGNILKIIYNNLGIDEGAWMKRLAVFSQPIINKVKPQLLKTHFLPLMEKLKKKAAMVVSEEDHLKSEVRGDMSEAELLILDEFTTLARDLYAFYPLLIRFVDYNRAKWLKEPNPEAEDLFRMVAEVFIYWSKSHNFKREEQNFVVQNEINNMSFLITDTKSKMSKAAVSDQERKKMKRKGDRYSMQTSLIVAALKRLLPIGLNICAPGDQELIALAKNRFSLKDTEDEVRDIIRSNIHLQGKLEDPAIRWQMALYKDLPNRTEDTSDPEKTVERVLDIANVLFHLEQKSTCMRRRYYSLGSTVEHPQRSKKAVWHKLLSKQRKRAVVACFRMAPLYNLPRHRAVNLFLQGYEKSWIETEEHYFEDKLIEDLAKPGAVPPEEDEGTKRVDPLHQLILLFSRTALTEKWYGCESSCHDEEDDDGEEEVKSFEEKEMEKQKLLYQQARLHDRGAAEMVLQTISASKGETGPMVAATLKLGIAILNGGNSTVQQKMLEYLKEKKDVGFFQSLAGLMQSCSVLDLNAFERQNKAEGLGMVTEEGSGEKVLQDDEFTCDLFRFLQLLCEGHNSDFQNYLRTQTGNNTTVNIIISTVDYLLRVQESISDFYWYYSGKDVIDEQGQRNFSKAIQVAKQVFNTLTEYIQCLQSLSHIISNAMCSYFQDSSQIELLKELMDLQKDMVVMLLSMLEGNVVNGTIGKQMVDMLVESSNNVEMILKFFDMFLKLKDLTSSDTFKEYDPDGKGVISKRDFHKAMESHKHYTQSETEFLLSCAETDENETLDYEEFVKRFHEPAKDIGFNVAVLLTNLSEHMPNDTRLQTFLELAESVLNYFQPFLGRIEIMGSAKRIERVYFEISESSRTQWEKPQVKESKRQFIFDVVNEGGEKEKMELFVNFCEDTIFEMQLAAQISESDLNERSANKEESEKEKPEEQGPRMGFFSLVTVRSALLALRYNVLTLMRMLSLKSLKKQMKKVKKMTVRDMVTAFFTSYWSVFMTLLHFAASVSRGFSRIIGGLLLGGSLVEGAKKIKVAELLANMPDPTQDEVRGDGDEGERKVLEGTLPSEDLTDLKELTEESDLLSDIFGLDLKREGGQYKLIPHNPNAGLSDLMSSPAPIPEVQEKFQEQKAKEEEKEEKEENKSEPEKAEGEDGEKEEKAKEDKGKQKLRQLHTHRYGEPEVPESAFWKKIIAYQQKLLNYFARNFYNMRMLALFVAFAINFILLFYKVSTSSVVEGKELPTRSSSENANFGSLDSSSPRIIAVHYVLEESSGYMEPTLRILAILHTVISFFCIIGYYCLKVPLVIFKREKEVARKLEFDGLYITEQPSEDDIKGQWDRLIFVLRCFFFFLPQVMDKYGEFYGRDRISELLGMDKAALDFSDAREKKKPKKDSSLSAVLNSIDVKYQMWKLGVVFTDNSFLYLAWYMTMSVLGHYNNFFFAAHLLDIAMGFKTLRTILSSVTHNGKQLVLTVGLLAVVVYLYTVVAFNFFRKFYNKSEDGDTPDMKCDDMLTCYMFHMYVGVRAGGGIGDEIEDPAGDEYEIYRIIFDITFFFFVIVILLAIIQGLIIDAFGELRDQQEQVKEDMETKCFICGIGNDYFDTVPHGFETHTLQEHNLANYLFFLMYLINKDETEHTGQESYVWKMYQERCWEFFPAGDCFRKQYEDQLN

For the compound heparin, for the setting “250 µg/ml heparin after 1 µg/ml protamine, 100 nM cytosolic Ca2+, Vm = 20 mV, n = 5”, the “open probability (Po) after addition of heparin” value is 0.009±0.006. Also, under “250 µg/ml heparin after 20 µg/ml protamine, Vm = 0 mV”, the “effect of subsequent heparin addition on protamine-modified RyR2” value is “reversed the effect of protamine”.

Turning to `CC(C)[C@@]1(O)[C@@H](O)[C@@]2(O)[C@@]3(C)C[C@]4(O)O[C@@]5([C@H](O)[C@@H](C)CC[C@]35O)[C@@]2(O)[C@]14C` [ryanodol, Ryanodol], the “substate current level as % of the full open current” value is listed as “same proportions” and the “slope conductance of the induced substate (I-V curve)” value was 56±2 pS. For the same compound, where the note is “10 µM ryanodol + 1 µg/ml protamine + 250 µg/ml heparin”, the “dwell time of ryanodol-induced events” value was determined as 3.4 ± 0.5 s. In addition, under “10 µM ryanodol + 1 µg/ml protamine”, the “dwell time of ryanodol-induced events” value is 11 ± 3 s and 11.3 ± 2.5 s. In addition, where the note is “10 µM ryanodol alone”, the “dwell time of ryanodol-induced events” value was determined as 3.7 ± 0.7 s. For the same compound, the “substate current level as % of the current through the full open channel” value (Vm = 0 mV) is on record as roughly 45%.

On to Imperatoxin A [IpTxA], for which the “substate current level as % of the full open current” value is reported as “same proportions” and the “slope conductance of the induced substate (I-V curve)” value is on record as 43±3 pS. Moreover, for the setting “50 nM IpTxA + 1 µg/ml protamine, fully activated RyR2”, the “effect of IpTxA on RyR2 behavior when protamine is present” value is on record as “little or no effect”. Further, the “substate current level as % of the current through the full open channel” value (Vm = 0 mV) is recorded as roughly 33%.

Values taken from publication PMC2789381, “Voltage-Dependent Modulation of Cardiac Ryanodine Receptors (RyR2) by Protamine” (PLoS ONE, 2009).
